In the assay the target is T1, Endoribonuclease toxin MazF (Escherichia coli (strain K12), UniProt P0AE70).
T1 sequence (P0AE70 whole entry): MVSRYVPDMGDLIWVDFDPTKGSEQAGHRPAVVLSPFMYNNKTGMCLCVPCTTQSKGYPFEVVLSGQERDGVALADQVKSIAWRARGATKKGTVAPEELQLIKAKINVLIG
Nature of the assay: MazF endoribonuclease activators, SAR follow-up, biochemical, fluorescence, single-stranded RNA substrate (AID 588603).

As to `C=CCOc1cccc(C2C(C(=O)c3ccc(C)o3)C(=O)C(=O)N2c2nccs2)c1` (stereo not drawn) [3-(5-methylfuran-2-yl)carbonyl-4-oxidanyl-2-(3-prop-2-enoxyphenyl)-1-(1,3-thiazol-2-yl)-2H-pyrrol-5-one], it took 22.3 µM to reach a half-maximal effect (EC50). `N#Cc1ccc(-n2c(O)c3[nH][nH]c(C(=O)c4ccc5ccccc5n4)c-3c2=O)cc1` [4-[(3aS,6aS)-4,6-dioxo-3-[oxo(2-quinolinyl)methyl]-3a,6a-dihydro-1H-pyrrolo[3,4-c]pyrazol-5-yl]benzonitrile] showed a concentration for a half-maximal effect (EC50) of 7.74 µM. Regarding `O=C(c1ccc2ccccc2n1)c1[nH][nH]c2c(O)n(-c3cccc(F)c3)c(=O)c1-2` [(3aS,6aS)-5-(3-fluorophenyl)-3-[oxo(2-quinolinyl)methyl]-3a,6a-dihydro-1H-pyrrolo[3,4-c]pyrazole-4,6-dione], the half-maximal effective concentration (EC50) was determined as 24.4 µM.

The values are drawn from BindingDB's records for doi:10.7270/Q2D50KGC (Burnham Center For Chemical Genomics, 2011).
